# Measurements as given in patent US10392630B2, “Plants having increased tolerance to herbicides” (BASF AGRO B.V., priority 2013, dated 2019).
# “And” between values parts separate entries of the source, which are not always exact repeats. Equal entries are not always repeated.
# Experiments:
# [1] = tested on: Alopecurus wildtype PPO (ALOMY), PPO herbicide sensitive PPO2, SEQ ID NO 2; test: PPO enzyme assay, dose-response (fluorescence), wildtype Alopecurus PPO2; assay type: biochemical, Alopecurus myosuroides
# [2] = target: Amaranthus wildtype PPO (AMARE), PPO herbicide sensitive PPO2 (Amaranthus tuberculatus, UniProt Q0NZW9); test: PPO enzyme assay, dose-response (fluorescence), wildtype Amaranthus PPO2; assay type: biochemical; details: IC50 (M), Table 3a
# [3] = tested on: transgenic Arabidopsis thaliana plants; test: Growth inhibition of transgenic Arabidopsis in 48-well plates, tolerance factor (Table 5, FIG. 2); assay type: in vivo; details: growth inhibition seven to ten days after seeding
# [4] = tested on: transgenic T0 corn events; test: Herbicide injury of transgenic T0 corn events, greenhouse spray (Table 6a); assay type: in vivo, Zea mays; details: 7 days after treatment
# [5] = tested on: transgenic soybean cv Jake cuttings; test: Herbicide injury of transgenic soybean cuttings from T0 plants (Table 7, FIG. 4); assay type: in vivo, Glyceine max; details: V2 spray, 1 week after treatment
# Amaranthus wildtype PPO (AMARE), PPO herbicide sensitive PPO2, sequence (Q0NZW9 entry or part of it): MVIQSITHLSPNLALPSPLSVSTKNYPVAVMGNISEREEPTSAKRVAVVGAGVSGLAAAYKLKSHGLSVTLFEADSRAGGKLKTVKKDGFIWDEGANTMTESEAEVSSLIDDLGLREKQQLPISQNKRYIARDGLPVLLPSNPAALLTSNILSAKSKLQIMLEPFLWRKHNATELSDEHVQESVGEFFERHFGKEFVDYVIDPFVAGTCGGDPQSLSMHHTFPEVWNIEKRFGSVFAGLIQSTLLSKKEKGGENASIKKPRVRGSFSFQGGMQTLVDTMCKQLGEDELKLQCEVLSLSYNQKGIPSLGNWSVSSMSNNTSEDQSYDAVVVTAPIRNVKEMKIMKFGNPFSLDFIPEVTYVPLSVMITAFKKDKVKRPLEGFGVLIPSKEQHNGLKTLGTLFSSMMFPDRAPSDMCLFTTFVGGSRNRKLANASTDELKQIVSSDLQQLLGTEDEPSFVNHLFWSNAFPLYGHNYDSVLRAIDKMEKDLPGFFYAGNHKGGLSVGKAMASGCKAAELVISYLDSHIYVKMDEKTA
smiles,measurement,setting,value
C#CCN1C(=O)C(F)(F)Oc2cc(F)c(-n3c(=O)n(C)c(=S)n(C)c3=O)cc21 [BAS 850H],IC50,"[1]; Table 3a, PPO herbicide sensitive PPO2, SEQ ID NO 2, ALOMY",0.0364 nM
same,IC50,"[1]; Table 3b, SEQ ID NO 2, WT",0.0364 nM
same,IC50,[2]; PPO herbicide sensitive PPO2 AC,5.96e-11 M
same,IC50,[2]; PPO herbicide sensitive PPO2 WC,5.17e-10 M
same,"TF (Tolerance Factor), relative tolerance rate (non-transgenic = 1.0)",[3]; transgenic Arabidopsis Am_PPO2_F438I,>50
same,"TF (Tolerance Factor), relative tolerance rate (non-transgenic = 1.0)",[3]; transgenic Arabidopsis Am_PPO2_R137A,>50
same,"TF (Tolerance Factor), relative tolerance rate (non-transgenic = 1.0)",[3]; transgenic Arabidopsis Am_PPO2_R137A_F438I,>50
same,"TF (Tolerance Factor), relative tolerance rate (non-transgenic = 1.0)",[3]; transgenic Arabidopsis Am_PPO2_R137A_F438L,>50
same,"TF (Tolerance Factor), relative tolerance rate (non-transgenic = 1.0)",[3]; transgenic Arabidopsis Am_PPO2_R137A_F438M,>50
same,"TF (Tolerance Factor), relative tolerance rate (non-transgenic = 1.0)",[3]; transgenic Arabidopsis Am_PPO2_R137A_F438V,>50
same,"TF (Tolerance Factor), relative tolerance rate (non-transgenic = 1.0)",[3]; transgenic Arabidopsis Am_PPO2_R137I,>50
same,"TF (Tolerance Factor), relative tolerance rate (non-transgenic = 1.0)",[3]; transgenic Arabidopsis Am_PPO2_R137L_F438I,>50
same,"TF (Tolerance Factor), relative tolerance rate (non-transgenic = 1.0)",[3]; transgenic Arabidopsis Am_PPO2_R137L_F438L,>50
same,"TF (Tolerance Factor), relative tolerance rate (non-transgenic = 1.0)",[3]; transgenic Arabidopsis Am_PPO2_R137L_F438M,>50
same,"TF (Tolerance Factor), relative tolerance rate (non-transgenic = 1.0)",[3]; transgenic Arabidopsis Am_PPO2_R137M_F438I,>50
same,"TF (Tolerance Factor), relative tolerance rate (non-transgenic = 1.0)",[3]; transgenic Arabidopsis Am_PPO2_R137M_F438L,>50
same,"TF (Tolerance Factor), relative tolerance rate (non-transgenic = 1.0)",[3]; transgenic Arabidopsis Am_PPO2_R137M_F438M,>50
same,"TF (Tolerance Factor), relative tolerance rate (non-transgenic = 1.0)",[3]; transgenic Arabidopsis Am_PPO2_R137M_F438V,>50
same,"Herbicide injury, 0 to 9 rating scale","[4]; T0 corn events AlomyPPO1_R138A, 50 g ai/ha + 1% (v/v) MSO at V2 stage",6
same,"Herbicide injury, 0 to 9 rating scale","[4]; T0 corn events AlomyPPO1_R138A_Y420M, 50 g ai/ha + 1% (v/v) MSO at V2 stage",5 and 6
same,"Herbicide injury, 0 to 9 rating scale","[4]; T0 corn events AlomyPPO1_R138A_Y420V, 50 g ai/ha + 1% (v/v) MSO at V2 stage",6 and 5
same,"Herbicide injury, 0 to 9 rating scale","[4]; T0 corn events AlomyPPO1_R138A_Y420V, 100 g ai/ha + 1% (v/v) MSO at V2 stage",5
same,"Herbicide injury, 0 to 9 rating scale","[4]; T0 corn events AlomyPPO1_Y420M, 50 g ai/ha + 1% (v/v) MSO at V2 stage",5 and 6
same,"Herbicide injury, 0 to 9 rating scale","[4]; T0 corn events AlomyPPO1_Y420M, 100 g ai/ha + 1% (v/v) MSO at V2 stage",6
same,"Herbicide injury, 0 to 9 rating scale","[4]; T0 corn events AlomyPPO1_Y420V, 50 g ai/ha + 1% (v/v) MSO at V2 stage",5 and 4 and 6
same,"Herbicide injury, 0 to 9 rating scale","[4]; T0 corn events AlomyPPO1_Y420V, 100 g ai/ha + 1% (v/v) MSO at V2 stage",6
same,"Herbicide injury, 0 to 9 rating scale","[4]; T0 corn events AlomyPPO2, 50 g ai/ha + 1% (v/v) MSO at V2 stage",6
same,"Herbicide injury, 0 to 9 rating scale","[4]; T0 corn events AlomyPPO2, 75 g ai/ha + 1% (v/v) MSO at V2 stage",6
same,"Herbicide injury, 0 to 9 rating scale","[4]; T0 corn events AlomyPPO2_R137A, 50 g ai/ha + 1% (v/v) MSO at V2 stage",5 and 4 and 6
same,"Herbicide injury, 0 to 9 rating scale","[4]; T0 corn events AlomyPPO2_R137A, 75 g ai/ha + 1% (v/v) MSO at V2 stage",5
same,"Herbicide injury, 0 to 9 rating scale","[4]; T0 corn events AlomyPPO2_R137A_F438I, 50 g ai/ha + 1% (v/v) MSO at V2 stage",4
same,"Herbicide injury, 0 to 9 rating scale","[4]; T0 corn events AlomyPPO2_R137A_F438I, 100 g ai/ha + 1% (v/v) MSO at V2 stage",4 and 5
same,"Herbicide injury, 0 to 9 rating scale","[4]; T0 corn events AlomyPPO2_R137A_F438M, 100 g ai/ha + 1% (v/v) MSO at V2 stage",5
same,"Herbicide injury, 0 to 9 rating scale","[4]; T0 corn events AlomyPPO2_R137A_F438V, 100 g ai/ha + 1% (v/v) MSO at V2 stage",6
same,"Herbicide injury, 0 to 9 rating scale","[4]; T0 corn events AlomyPPO2_R137I, 100 g ai/ha + 1% (v/v) MSO at V2 stage",4
same,"Herbicide injury, 0 to 9 rating scale","[4]; T0 corn events AlomyPPO2_R137M_F438I, 75 g ai/ha + 1% (v/v) MSO at V2 stage",3 and 4
same,"Herbicide injury, 0 to 9 rating scale","[4]; T0 corn events tp-SorbiPPO2::AlomyPPO2, 50 g ai/ha + 1% (v/v) MSO at V2 stage",5 and 6
same,"Herbicide injury, 0 to 9 rating scale","[4]; T0 corn events tp-SorbiPPO2::AlomyPPO2, 100 g ai/ha + 1% (v/v) MSO at V2 stage",5
same,"Herbicide injury, 0 to 9 rating scale","[4]; T0 corn events tp-SorbiPPO2::AlomyPPO2_F431V, 50 g ai/ha + 1% (v/v) MSO at V2 stage",4 and 5
same,"Herbicide injury, 0 to 9 rating scale","[4]; T0 corn events tp-SorbiPPO2::AlomyPPO2_F431V, 100 g ai/ha + 1% (v/v) MSO at V2 stage",5 and 6
same,"Herbicide injury, 0 to 9 rating scale","[4]; T0 corn events tp-SorbiPPO2::AlomyPPO2_R130A, 50 g ai/ha + 1% (v/v) MSO at V2 stage",4 and 5
same,"Herbicide injury, 0 to 9 rating scale","[4]; T0 corn events tp-SorbiPPO2::AlomyPPO2_R130A_F431V, 100 g ai/ha + 1% (v/v) MSO at V2 stage",7 and 6
same,"Herbicide injury, 0 to 9 rating scale","[4]; T0 corn events tp-SorbiPPO2::c-AlomyPPO2_R130A_F431M, 50 g ai/ha + 1% (v/v) MSO at V2 stage",4 and 5
same,"Herbicide injury, 0 to 9 rating scale","[4]; T0 corn events tp-SorbiPPO2::c-AlomyPPO2_R130L_F431V, 50 g ai/ha + 1% (v/v) MSO at V2 stage",4 and 3 and 5
same,"Herbicide injury, 0 to 9 rating scale","[4]; T0 corn events tp-ZeamaPPO2::AlomyPPO2, 50 g ai/ha + 1% (v/v) MSO at V2 stage",5 and 6
same,"Herbicide injury, 0 to 9 rating scale","[4]; T0 corn events tp-ZeamaPPO2::AlomyPPO2_F431V, 50 g ai/ha + 1% (v/v) MSO at V2 stage",3 and 4 and 5
same,"Herbicide injury, 0 to 9 rating scale","[4]; T0 corn events tp-ZeamaPPO2::AlomyPPO2_F431V, 100 g ai/ha + 1% (v/v) MSO at V2 stage",4
same,"Herbicide injury, 0 to 9 rating scale","[4]; T0 corn events tp-ZeamaPPO2::AlomyPPO2_R130A, 50 g ai/ha + 1% (v/v) MSO at V2 stage",7 and 4 and 5 and 6
same,"Herbicide injury, 0 to 9 rating scale","[4]; T0 corn events tp-ZeamaPPO2::AlomyPPO2_R130A, 100 g ai/ha + 1% (v/v) MSO at V2 stage",5
same,"Herbicide injury, 0 to 9 rating scale","[4]; T0 corn events tp-ZeamaPPO2::AlomyPPO2_R130A_F431V, 50 g ai/ha + 1% (v/v) MSO at V2 stage",4 and 5
same,"Herbicide injury, 0 to 9 rating scale","[4]; T0 corn events tp-ZeamaPPO2::c-AlomyPPO2_R130L_F431V, 50 g ai/ha + 1% (v/v) MSO at V2 stage",3 and 4 and 5 and 6
same,"Herbicide injury, 0 to 9 rating scale","[4]; T0 corn events tp-ZeamaPPO2::c-AlomyPPO2_R130M_F431V, 50 g ai/ha + 1% (v/v) MSO at V2 stage",3 and 4 and 2
same,"Herbicide injury, 0 to 9 rating scale","[4]; untransformed wild type corn, 50 g ai/ha + 1% (v/v) MSO at V2 stage",6
same,"Herbicide injury, 0 to 9 rating scale","[4]; untransformed wild type corn, 75 g ai/ha + 1% (v/v) MSO at V2 stage",6
same,"Herbicide injury, 0 to 9 rating scale","[4]; untransformed wild type corn, 100 g ai/ha + 1% (v/v) MSO at V2 stage",6
same,Herbicide injury,"[5]; AlomyPPO1_R138A T0 cuttings, BAS 850H 25 g ai/ha",5 and 9
same,Herbicide injury,"[5]; AlomyPPO1_R138A T0 cuttings, BAS 850H 50 g ai/ha",8 and 9
same,Herbicide injury,"[5]; AlomyPPO1_R138A_Y420M T0 cuttings, BAS 850H 25 g ai/ha",7
same,Herbicide injury,"[5]; AlomyPPO1_R138A_Y420M T0 cuttings, BAS 850H 50 g ai/ha",9
same,Herbicide injury,"[5]; AlomyPPO1_R138L T0 cuttings, BAS 850H 25 g ai/ha",8 and 9 and 6
same,Herbicide injury,"[5]; AlomyPPO1_R138L T0 cuttings, BAS 850H 50 g ai/ha",8 and 7 and 9
same,Herbicide injury,"[5]; AlomyPPO1_Y420M T0 cuttings, BAS 850H 25 g ai/ha",6 and 5 and 9
same,Herbicide injury,"[5]; AlomyPPO1_Y420M T0 cuttings, BAS 850H 50 g ai/ha",8 and 6 and 9
same,Herbicide injury,"[5]; AlomyPPO1_Y420V T0 cuttings, BAS 850H 50 g ai/ha",9 and 7 and 8 and 5
same,Herbicide injury,"[5]; AlomyPPO2 T0 cuttings, BAS 850H 25 g ai/ha",7 and 8 and 9
same,Herbicide injury,"[5]; AlomyPPO2 T0 cuttings, BAS 850H 50 g ai/ha",9 and 8 and 7
same,Herbicide injury,"[5]; AlomyPPO2_R137A T0 cuttings, BAS 850H 25 g ai/ha",7
same,Herbicide injury,"[5]; AlomyPPO2_R137A T0 cuttings, BAS 850H 50 g ai/ha",7
same,Herbicide injury,"[5]; AlomyPPO2_R137A_F438I T0 cuttings, BAS 850H 25 g ai/ha",4 and 5 and 7 and 8 and 6
same,Herbicide injury,"[5]; AlomyPPO2_R137A_F438I T0 cuttings, BAS 850H 50 g ai/ha",5 and 6 and 7 and 8
same,Herbicide injury,"[5]; AlomyPPO2_R137A_F438I T0 cuttings, BAS 850H 75 g ai/ha",5 and 8 and 7 and 9 and 6
same,Herbicide injury,"[5]; AlomyPPO2_R137A_F438L T0 cuttings, BAS 850H 25 g ai/ha",6 and 9 and 8
same,Herbicide injury,"[5]; AlomyPPO2_R137A_F438L T0 cuttings, BAS 850H 50 g ai/ha",7 and 9 and 5
same,Herbicide injury,"[5]; AlomyPPO2_R137A_F438L T0 cuttings, BAS 850H 75 g ai/ha",7 and 9 and 5
same,Herbicide injury,"[5]; AlomyPPO2_R137A_F438V T0 cuttings, BAS 850H 50 g ai/ha",4 and 5 and 6
same,Herbicide injury,"[5]; AlomyPPO2_R137A_F438V T0 cuttings, BAS 850H 75 g ai/ha",5 and 7 and 6
same,Herbicide injury,"[5]; AlomyPPO2_R137I T0 cuttings, BAS 850H 50 g ai/ha",6 and 5 and 7 and 9
same,Herbicide injury,"[5]; AlomyPPO2_R137L_F438I T0 cuttings, BAS 850H 25 g ai/ha",8 and 9
same,Herbicide injury,"[5]; AlomyPPO2_R137L_F438I T0 cuttings, BAS 850H 50 g ai/ha",9 and 8
same,Herbicide injury,"[5]; AlomyPPO2_R137L_F438I T0 cuttings, BAS 850H 75 g ai/ha",9 and 8
same,Herbicide injury,"[5]; AlomyPPO2_R137M_F438L T0 cuttings, BAS 850H 50 g ai/ha",7 and 4 and 5
same,Herbicide injury,"[5]; AlomyPPO2_R137M_F438L T0 cuttings, BAS 850H 75 g ai/ha",7 and 6 and 5
same,Herbicide injury,"[5]; Wild type cuttings, BAS 850H 25 g ai/ha",8
same,Herbicide injury,"[5]; Wild type cuttings, BAS 850H 50 g ai/ha",9
same,Herbicide injury,"[5]; Wild type cuttings, BAS 850H 75 g ai/ha",9
